The text below walks through data of US20250333407A1, “Compounds and Their Use for Treatment of Hemoglobinopathies” (Bristol-Myers Squibb Company, priority 2024, published 2025).

What all share (type): cell-based
One test deals with T1, ZBTB7A (Homo sapiens, UniProt O95365+Q96SW2).
T1 construct: HUDEP-2 cells engineered to express a HiBiT tag in either the WIZ (Widely interspaced zinc finger) or ZBTB7A
Kind of test: HUDEP-2 ZBTB7A HiBiT degradation assay. Particulars: HiBiT-tagged ZBTB7A degradation in HUDEP-2 cells, 24 hours of treatment; read-out: ZBTB7A EC50. The procedure, abridged: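 HiBiT-tagged HUDEP-2 cells were pre-cultured 48 h in IMDM with EPO, SCF, doxycycline and 5% human plasma, then exposed to compounds at 1.0×10^6 cells/ml for 24 h at 37 °C. Nano-Glo HiBiT lytic luminescence, normalised to DMSO over 10 concentrations, gave EC50 and Y-min.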

For another test, the target named is T2, WIZ (Homo sapiens, UniProt O95785+Q96SW2).
T2 construct: HUDEP-2 cells engineered to express a HiBiT tag in either the WIZ (Widely interspaced zinc finger) or ZBTB7A
Kind of test: HUDEP-2 WIZ HiBiT degradation assay. Particulars: HiBiT-tagged WIZ degradation in HUDEP-2 cells, 24 hours of treatment; read-out: WIZ EC50. The procedure, abridged: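 HiBiT-tagged HUDEP-2 cells at 1.0×10^6 cells/ml in SFEM II with SCF, EPO, dexamethasone and doxycycline, treated 24 h at 37 °C with a 10-point series ([…]). Luminescence after HiBiT lytic detection, normalized to DMSO; EC50 and Y-min from fitted curves.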
In general terms: HiBiT is a short tag that completes a luciferase, so light tracks the accessible tagged protein.

In another test the test system is HbF. Kind of test: HbF HiBiT induction assay in HUDEP-2 cells. To be noted: HUDEP-2 cells with HiBiT tag in HBG1/2, 72 hours of treatment; area under the dose response curve, higher AUC = greater HbF induction. The procedure, abridged:
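HUDEP-2 cells carrying a HiBiT tag on HBG1/2 were exposed to compounds for 72 h at 37° C, 5% CO2, in IMDM with EPO, hSCF, DOX, transferrin, insulin, heparin and 5% human plasma. HiBiT luminescence was read after lytic detection; HbF induction is expressed as dose-response AUC, alongside EC50 and Ymax.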

T2 sequence (O95785 whole entry): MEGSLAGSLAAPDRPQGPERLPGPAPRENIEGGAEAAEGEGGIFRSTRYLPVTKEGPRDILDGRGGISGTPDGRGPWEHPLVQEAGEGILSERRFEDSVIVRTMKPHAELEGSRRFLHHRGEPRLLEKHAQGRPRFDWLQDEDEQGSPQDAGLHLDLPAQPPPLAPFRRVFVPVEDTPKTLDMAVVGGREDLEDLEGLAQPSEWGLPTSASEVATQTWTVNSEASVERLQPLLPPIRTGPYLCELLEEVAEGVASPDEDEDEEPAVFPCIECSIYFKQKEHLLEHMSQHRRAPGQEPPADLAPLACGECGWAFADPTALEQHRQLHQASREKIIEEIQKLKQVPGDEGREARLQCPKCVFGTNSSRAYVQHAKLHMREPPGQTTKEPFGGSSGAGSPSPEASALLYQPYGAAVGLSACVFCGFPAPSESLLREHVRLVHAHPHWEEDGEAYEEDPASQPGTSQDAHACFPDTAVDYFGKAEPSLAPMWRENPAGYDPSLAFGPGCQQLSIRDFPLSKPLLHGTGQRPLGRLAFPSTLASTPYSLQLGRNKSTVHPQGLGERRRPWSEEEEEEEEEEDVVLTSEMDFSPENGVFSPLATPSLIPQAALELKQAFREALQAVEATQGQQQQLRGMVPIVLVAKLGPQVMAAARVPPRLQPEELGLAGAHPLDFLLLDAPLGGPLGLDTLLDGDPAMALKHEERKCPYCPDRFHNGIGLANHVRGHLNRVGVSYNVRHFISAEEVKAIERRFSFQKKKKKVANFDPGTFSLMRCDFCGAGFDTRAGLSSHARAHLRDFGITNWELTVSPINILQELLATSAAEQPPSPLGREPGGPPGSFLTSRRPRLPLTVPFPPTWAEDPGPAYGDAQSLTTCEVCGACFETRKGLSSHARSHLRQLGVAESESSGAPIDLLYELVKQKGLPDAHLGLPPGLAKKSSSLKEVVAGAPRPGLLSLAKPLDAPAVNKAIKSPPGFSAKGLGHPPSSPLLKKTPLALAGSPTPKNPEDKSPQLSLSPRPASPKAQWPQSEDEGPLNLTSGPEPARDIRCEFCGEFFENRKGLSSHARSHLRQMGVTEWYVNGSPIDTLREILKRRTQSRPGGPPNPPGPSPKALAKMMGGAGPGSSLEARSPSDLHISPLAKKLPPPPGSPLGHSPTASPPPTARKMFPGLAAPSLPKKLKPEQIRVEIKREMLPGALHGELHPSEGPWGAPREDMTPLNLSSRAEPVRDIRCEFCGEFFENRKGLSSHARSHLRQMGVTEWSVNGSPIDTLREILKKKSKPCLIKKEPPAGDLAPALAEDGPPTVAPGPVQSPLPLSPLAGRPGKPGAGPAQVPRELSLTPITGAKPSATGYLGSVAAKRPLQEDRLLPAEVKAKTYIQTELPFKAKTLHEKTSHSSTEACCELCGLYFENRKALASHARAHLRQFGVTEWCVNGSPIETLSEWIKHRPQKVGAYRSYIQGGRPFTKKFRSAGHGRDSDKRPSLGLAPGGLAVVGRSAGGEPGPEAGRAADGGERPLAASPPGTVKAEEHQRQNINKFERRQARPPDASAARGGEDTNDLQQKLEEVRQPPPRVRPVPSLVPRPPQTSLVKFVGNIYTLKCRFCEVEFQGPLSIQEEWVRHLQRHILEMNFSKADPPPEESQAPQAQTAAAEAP
T2 sequence (Q96SW2 whole entry): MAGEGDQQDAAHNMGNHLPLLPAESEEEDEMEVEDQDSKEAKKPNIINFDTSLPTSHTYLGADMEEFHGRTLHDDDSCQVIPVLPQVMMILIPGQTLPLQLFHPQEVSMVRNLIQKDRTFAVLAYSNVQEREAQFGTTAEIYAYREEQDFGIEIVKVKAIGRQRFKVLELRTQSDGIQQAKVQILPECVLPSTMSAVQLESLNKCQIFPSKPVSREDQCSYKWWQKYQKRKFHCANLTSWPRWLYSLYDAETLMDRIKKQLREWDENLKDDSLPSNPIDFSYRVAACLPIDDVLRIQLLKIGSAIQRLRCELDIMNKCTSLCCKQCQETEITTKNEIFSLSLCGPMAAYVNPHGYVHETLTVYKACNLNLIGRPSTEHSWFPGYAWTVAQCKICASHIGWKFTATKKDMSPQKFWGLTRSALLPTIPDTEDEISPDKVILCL
T2 sequence (Q16531 whole entry partner): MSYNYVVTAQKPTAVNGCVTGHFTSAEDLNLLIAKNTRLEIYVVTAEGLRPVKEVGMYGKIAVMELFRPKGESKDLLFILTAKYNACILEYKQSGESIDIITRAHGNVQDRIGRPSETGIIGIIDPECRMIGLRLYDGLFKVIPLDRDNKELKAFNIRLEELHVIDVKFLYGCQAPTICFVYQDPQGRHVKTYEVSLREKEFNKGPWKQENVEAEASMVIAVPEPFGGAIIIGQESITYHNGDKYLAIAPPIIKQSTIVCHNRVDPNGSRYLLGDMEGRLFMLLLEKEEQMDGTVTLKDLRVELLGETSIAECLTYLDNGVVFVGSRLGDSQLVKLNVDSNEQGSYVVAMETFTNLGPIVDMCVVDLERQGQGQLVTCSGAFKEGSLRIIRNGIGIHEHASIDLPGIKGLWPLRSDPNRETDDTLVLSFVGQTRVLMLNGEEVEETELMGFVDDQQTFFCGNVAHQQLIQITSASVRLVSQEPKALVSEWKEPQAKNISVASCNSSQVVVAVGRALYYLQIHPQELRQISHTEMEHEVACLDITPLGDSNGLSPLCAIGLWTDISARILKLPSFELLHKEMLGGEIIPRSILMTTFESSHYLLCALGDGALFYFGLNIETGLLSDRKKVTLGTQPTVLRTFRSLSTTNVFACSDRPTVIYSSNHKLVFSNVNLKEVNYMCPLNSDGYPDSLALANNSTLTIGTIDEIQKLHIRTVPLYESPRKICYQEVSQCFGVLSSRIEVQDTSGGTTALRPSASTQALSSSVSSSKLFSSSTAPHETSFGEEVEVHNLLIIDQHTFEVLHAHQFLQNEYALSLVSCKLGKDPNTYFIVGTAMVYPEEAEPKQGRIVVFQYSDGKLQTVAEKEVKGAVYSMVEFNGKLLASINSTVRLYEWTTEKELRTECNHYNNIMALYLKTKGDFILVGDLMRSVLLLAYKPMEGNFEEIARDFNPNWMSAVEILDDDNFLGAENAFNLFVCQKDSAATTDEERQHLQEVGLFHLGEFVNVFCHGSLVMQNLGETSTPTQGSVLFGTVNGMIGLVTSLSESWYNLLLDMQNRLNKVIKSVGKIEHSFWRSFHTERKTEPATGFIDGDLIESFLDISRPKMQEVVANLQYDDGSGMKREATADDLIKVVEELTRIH
T1 sequence (O95365 whole entry): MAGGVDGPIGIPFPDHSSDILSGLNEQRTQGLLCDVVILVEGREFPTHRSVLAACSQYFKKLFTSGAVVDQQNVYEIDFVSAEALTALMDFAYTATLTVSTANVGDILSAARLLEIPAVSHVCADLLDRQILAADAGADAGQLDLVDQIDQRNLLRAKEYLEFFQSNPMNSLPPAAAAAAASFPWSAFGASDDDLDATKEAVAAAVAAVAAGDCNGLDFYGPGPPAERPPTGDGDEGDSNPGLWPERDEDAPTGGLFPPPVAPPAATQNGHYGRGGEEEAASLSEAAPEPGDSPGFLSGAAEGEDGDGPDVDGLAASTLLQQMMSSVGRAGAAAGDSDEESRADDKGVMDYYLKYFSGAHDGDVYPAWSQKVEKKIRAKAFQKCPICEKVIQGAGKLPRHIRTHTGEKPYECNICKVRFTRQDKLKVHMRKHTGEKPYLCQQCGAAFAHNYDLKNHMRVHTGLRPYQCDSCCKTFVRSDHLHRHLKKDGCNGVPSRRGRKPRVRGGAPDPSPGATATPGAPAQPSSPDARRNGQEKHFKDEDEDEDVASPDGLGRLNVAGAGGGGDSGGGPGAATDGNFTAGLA
T1 sequence (Q96SW2 whole entry): as the sequence (Q96SW2 whole entry) above
T1 sequence (Q16531 whole entry partner): as the sequence (Q16531 whole entry partner) above

Regarding `Cc1cncc(-c2c(Nc3cccc4c3C(=O)N([C@H]3CCC(=O)NC3=O)C4=O)cc3c(c2F)OCC(=O)N3C)c1` [Compound 69, (S)-2-(2,6-dioxopiperidin-3-yl)-4-((8-fluoro-4-methyl-7-(5-methylpyridin-3-yl)-3-oxo-3,4-dihydro-2H-benzo[b][1,4]oxazin-6-yl)amino)isoindoline-1,3-dione], the results for the DC50 on ZBTB7A and on WIZ were 54 nM and 20 nM, respectively. Moreover, the “HBF AUC” value with HbF is “+ (+ = 15 ≤ AUC < 100)”.
On to `COc1cc(-c2cc3c(cc2Nc2cccc4c2C(=O)N([C@H]2CCC(=O)NC2=O)C4=O)N(C)C(=O)CO3)c(F)cn1` [Compound 28, (S)-2-(2,6-dioxopiperidin-3-yl)-4-((7-(5-fluoro-2-methoxypyridin-4-yl)-4-methyl-3-oxo-3,4-dihydro-2H-benzo[b][1,4]oxazin-6-yl)amino)isoindoline-1,3-dione], for which the DC50 on ZBTB7A worked out at 13 nM; on WIZ, 11 nM. Also, in the test with HbF, the “HBF AUC” value is “+++ (+++ = AUC ≥ 150)”.
Consider `Cc1cc(-c2c(Nc3cccc4c3C(=O)N([C@H]3CCC(=O)NC3=O)C4=O)cc3c(c2F)[C@@H](C)OC(=O)N3C)c(F)cn1` [Compound 82, 2-((S)-2,6-dioxopiperidin-3-yl)-4-(((4R)-5-fluoro-6-(5-fluoro-2-methylpyridin-4-yl)-1,4-dimethyl-2-oxo-1,4-dihydro-2H-benzo[d][1,3]oxazin-7-yl)amino)isoindoline-1,3-dione], for which the DC50 on ZBTB7A was determined as 19 nM; at WIZ, 54 nM. Also, in the test on HbF, the “HBF AUC” value was “++ (++ = 100 ≤ AUC < 150)”.
With `Cc1cc(-c2cc3c(cc2Nc2cccc4c2C(=O)N([C@H]2CCC(=O)NC2=O)C4=O)N(C)C(=O)O[C@@H]3C)ccn1` [Compound 21, 4-(((R)-1,4-dimethyl-6-(2-methylpyridin-4-yl)-2-oxo-1,4-dihydro-2H-benzo[d][1,3]oxazin-7-yl)amino)-2-((S)-2,6-dioxopiperidin-3-yl)isoindoline-1,3-dione], the DC50 at ZBTB7A came out at 12 nM; on WIZ, 17 nM. Further, in the test on HbF, the “HBF AUC” value is “+ (+ = 15 ≤ AUC < 100)”.
In the case of `Cc1cc(-c2cc3c(cc2Nc2cccc4c2C(=O)N(C2CCC(=O)NC2=O)C4=O)N(C)C(=O)OC3)cc(C)n1` (stereo not drawn) [Compound 62, 4-((6-(2,6-dimethylpyridin-4-yl)-1-methyl-2-oxo-1,4-dihydro-2H-benzo[d][1,3]oxazin-7-yl)amino)-2-(2,6-dioxopiperidin-3-yl)isoindoline-1,3-dione], the DC50 on ZBTB7A worked out at 19 nM; on WIZ, 17 nM. Moreover, the “HBF AUC” value in the test on HbF was “++ (++ = 100 ≤ AUC < 150)”.
Turning to `COc1cc(-c2cc3c(cc2Nc2cccc4c2C(=O)N([C@H]2CCC(=O)NC2=O)C4=O)N(C)C(=O)[C@@H](C)O3)ccn1` [Compound 33, 2-((S)-2,6-dioxopiperidin-3-yl)-4-(((R)-7-(2-methoxypyridin-4-yl)-2,4-dimethyl-3-oxo-3,4-dihydro-2H-benzo[b][1,4]oxazin-6-yl)amino)isoindoline-1,3-dione], the DC50 on ZBTB7A was determined as 24 nM; on WIZ, 21 nM. In the test on HbF, the “HBF AUC” value was “+ (+ = 15 ≤ AUC < 100)”.
For the compound `COc1ccc(-c2cc3c(cc2Nc2cccc4c2C(=O)N([C@H]2CCC(=O)NC2=O)C4=O)N(C)C(=O)CO3)cn1` [Compound 38, (S)-2-(2,6-dioxopiperidin-3-yl)-4-((7-(6-methoxypyridin-3-yl)-4-methyl-3-oxo-3,4-dihydro-2H-benzo[b][1,4]oxazin-6-yl)amino)isoindoline-1,3-dione], the DC50 at ZBTB7A was found to be 13 nM; on WIZ, 14 nM. The “HBF AUC” value with HbF was “++ (++ = 100 ≤ AUC < 150)”.
For the compound `CNc1cc(-c2cc3c(cc2Nc2cccc4c2C(=O)N(C2CCC(=O)NC2=O)C4=O)N(C)C(=O)CO3)c(F)cn1` (stereo not drawn) [Compound 60, 2-(2,6-dioxopiperidin-3-yl)-4-((7-(5-fluoro-2-(methylamino)pyridin-4-yl)-4-methyl-3-oxo-3,4-dihydro-2H-benzo[b][1,4]oxazin-6-yl)amino)isoindoline-1,3-dione], the DC50 on ZBTB7A was 11 nM; on WIZ, 9 nM. Further, in the test with HbF, the “HBF AUC” value is recorded as “+++ (+++ = AUC ≥ 150)”.
In the same order, the values of `Cc1cc(-c2cc3c(cc2Nc2cccc4c2C(=O)N([C@H]2CCC(=O)NC2=O)C4=O)N(C)C(=O)[C@H](C)O3)cc(C(F)F)n1` [Compound 48, 4-(((S)-7-(2-(difluoromethyl)-6-methylpyridin-4-yl)-2,4-dimethyl-3-oxo-3,4-dihydro-2H-benzo[b][1,4]oxazin-6-yl)amino)-2-((S)-2,6-dioxopiperidin-3-yl)isoindoline-1,3-dione] are 52 nM, 31 nM and “++ (++ = 100 ≤ AUC < 150)”.
As for `Cc1cc(-c2cc3c(cc2Nc2cccc4c2C(=O)N([C@H]2CCC(=O)NC2=O)C4=O)N(C)C(=O)OC3)ccn1` [Compound 11, (S)-2-(2,6-dioxopiperidin-3-yl)-4-((1-methyl-6-(2-methylpyridin-4-yl)-2-oxo-1,4-dihydro-2H-benzo[d][1,3]oxazin-7-yl)amino)isoindoline-1,3-dione], the DC50 was determined as 17 nM on ZBTB7A and 21 nM at WIZ. Further, the “HBF AUC” value in the test with HbF is “++ (++ = 100 ≤ AUC < 150)”.
Take `Cc1cc(-c2cc3c(cc2Nc2cccc4c2C(=O)N([C@@H]2CCC(=O)NC2=O)C4=O)N(C)C(=O)CO3)c(F)cn1` [Compound 58, (R)-2-(2,6-dioxopiperidin-3-yl)-4-((7-(5-fluoro-2-methylpyridin-4-yl)-4-methyl-3-oxo-3,4-dihydro-2H-benzo[b][1,4]oxazin-6-yl)amino)isoindoline-1,3-dione]: the DC50 at ZBTB7A amounted to 10 nM; on WIZ, 9 nM. For the same compound, the “HBF AUC” value in the test with HbF was “++ (++ = 100 ≤ AUC < 150)”.
As for `CNc1cc(-c2cc3c(cc2Nc2cccc4c2C(=O)N(C2CCC(=O)NC2=O)C4=O)N(C)C(=O)CO3)cc(C)n1` (stereo not drawn) [Compound 66, 2-(2,6-dioxopiperidin-3-yl)-4-((4-methyl-7-(2-methyl-6-(methylamino)pyridin-4-yl)-3-oxo-3,4-dihydro-2H-benzo[b][1,4]oxazin-6-yl)amino)isoindoline-1,3-dione], the values for the DC50 at ZBTB7A and at WIZ were 188 nM and 15 nM, respectively. In addition, the “HBF AUC” value in the test on HbF is given as “++ (++ = 100 ≤ AUC < 150)”.
Consider `CCN1C(=O)CCc2cc(-c3ccnc(C)c3)c(Nc3cccc4c3C(=O)N([C@H]3CCC(=O)NC3=O)C4=O)cc21` [Compound 89, (S)-2-(2,6-dioxopiperidin-3-yl)-4-((1-ethyl-6-(2-methylpyridin-4-yl)-2-oxo-1,2,3,4-tetrahydroquinolin-7-yl)amino)isoindoline-1,3-dione], for which the results for the DC50 at ZBTB7A and at WIZ were 13 nM and 14 nM, respectively. Besides, the “HBF AUC” value in the test on HbF is “+ (+ = 15 ≤ AUC < 100)”.
In the case of `Cc1cc(-c2cc3c(cc2Nc2cccc4c2C(=O)N(C2CCC(=O)NC2=O)C4=O)N(C)C(=O)CC3(C)C)ccn1` (stereo not drawn) [Compound 83, 2-(2,6-dioxopiperidin-3-yl)-4-((1,4,4-trimethyl-6-(2-methylpyridin-4-yl)-2-oxo-1,2,3,4-tetrahydroquinolin-7-yl)amino)isoindoline-1,3-dione], the DC50 at ZBTB7A came out at 13 nM; on WIZ it was 8 nM. In the test with HbF, the “HBF AUC” value is listed as “+ (+ = 15 ≤ AUC < 100)”.
